Biological target: Beta-1 adrenergic receptor (Homo sapiens, UniProt P08588)
Assay: Agonist activity at human adrenergic beta1 receptor expressed in CHO cells assessed as cAMP accumulation

Chain of Beta-1 adrenergic receptor (P08588 whole entry): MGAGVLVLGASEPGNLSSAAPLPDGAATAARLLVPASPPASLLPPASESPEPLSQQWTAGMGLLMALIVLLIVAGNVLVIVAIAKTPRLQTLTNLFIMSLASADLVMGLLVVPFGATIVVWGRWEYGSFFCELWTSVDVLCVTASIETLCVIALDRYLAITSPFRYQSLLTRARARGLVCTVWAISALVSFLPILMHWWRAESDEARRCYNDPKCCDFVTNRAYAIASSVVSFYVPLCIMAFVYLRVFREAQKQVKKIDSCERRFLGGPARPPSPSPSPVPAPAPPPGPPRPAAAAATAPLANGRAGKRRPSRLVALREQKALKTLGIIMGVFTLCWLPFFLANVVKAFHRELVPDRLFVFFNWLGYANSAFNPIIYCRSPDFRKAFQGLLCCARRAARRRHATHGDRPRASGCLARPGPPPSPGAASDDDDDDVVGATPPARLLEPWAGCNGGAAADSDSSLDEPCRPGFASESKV

With `O=c1[nH]cc(O)n1-c1ccc(CCCCOCCCCCCNC[C@H](O)c2ccc(O)c(CO)c2)cc1` the EC50 was 79 nM.
